Assays:
[1] = target: Thymidine phosphorylase (Escherichia coli K-12) (UniProt P07650); test: Inhibition of Escherichia coli Thymidine Phosphorylase at a concentration of 1000 uM after 40 minutes
[2] = target: Thymidine phosphorylase (Escherichia coli K-12) (UniProt P07650); test: Inhibition of Escherichia coli Thymidine Phosphorylase at a concentration of 1000 uM after 20 minutes
[3] = target: Thymidine phosphorylase (Escherichia coli K-12) (UniProt P07650); test: Inhibition of Escherichia coli Thymidine Phosphorylase at a concentration of 1000 uM after 60 minutes
[4] = target: Thymidine phosphorylase (Escherichia coli) (UniProt P07650); test: Inhibition of Escherichia coli TPase at a concentration of 500 uM after 60 minutes
Thymidine phosphorylase (Escherichia coli), sequence (P07650 whole entry, looked up): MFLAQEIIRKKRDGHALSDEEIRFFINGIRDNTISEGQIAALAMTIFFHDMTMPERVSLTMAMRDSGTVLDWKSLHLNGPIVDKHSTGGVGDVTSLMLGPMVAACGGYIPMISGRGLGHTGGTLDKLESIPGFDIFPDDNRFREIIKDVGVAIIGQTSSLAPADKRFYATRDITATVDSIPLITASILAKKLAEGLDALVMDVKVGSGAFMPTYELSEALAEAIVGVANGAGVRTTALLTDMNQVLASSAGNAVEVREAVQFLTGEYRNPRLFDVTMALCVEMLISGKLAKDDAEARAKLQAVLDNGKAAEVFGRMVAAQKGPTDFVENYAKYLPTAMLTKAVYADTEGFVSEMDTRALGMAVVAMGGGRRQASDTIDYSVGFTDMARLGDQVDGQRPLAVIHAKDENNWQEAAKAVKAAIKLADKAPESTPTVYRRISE

[5] = target: Thymidine phosphorylase (Escherichia coli) (UniProt P07650); test: Inhibition of Escherichia coli TPase at a concentration of 500 uM after 20 minutes
[6] = target: Thymidine phosphorylase (Escherichia coli) (UniProt P07650); test: Inhibition of Escherichia coli TPase at a concentration of 500 uM after 40 minutes

Thymidine phosphorylase (Escherichia coli K-12), sequence (P07650 whole entry, looked up): as above

SMILES	inhibition [1]	inhibition [2]	inhibition [3]	inhibition [4]	inhibition [5]	inhibition [6]
Cc1cn(C/C=C\COCOCP(=O)(OC(C)C)OC(C)C)c(=O)[nH]c1=O	0%	0%	0%	–	–	–
Cc1cn(CCCCCCCCCP(=O)(O)O)c(=O)[nH]c1=O	75%	81%	70%	–	–	–
Nc1c(Br)c(=O)[nH]c(=O)n1CCCCCCCCP(=O)(O)O	91%	94%	89%	–	–	–
Cc1cn(CCCCCCCCP(=O)(O)O)c(=O)[nH]c1=O	68%	75%	61%	–	–	–
Cc1cn(CCCCOCOCP(=O)(O)O)c(=O)[nH]c1=O	0%	0%	0%	–	–	–
CCOP(=O)(CCCCCCCCCn1cc(C)c(=O)[nH]c1=O)OCC	3%	4%	2%	–	–	–
CCOP(=O)(CCCCCCCCn1c(N)c(Br)c(=O)[nH]c1=O)OCC	16%	21%	10%	–	–	–
Cc1cn(CCCCOCOCP(=O)(OC(C)C)OC(C)C)c(=O)[nH]c1=O	0%	0%	0%	–	–	–
Cc1cn(CCCCCCCCP(=O)(OC(C)C)OC(C)C)c(=O)[nH]c1=O	0%	0%	0%	–	–	–
Cc1cn(CC(O)C(O)COCP(=O)(OC(C)C)OC(C)C)c(=O)[nH]c1=O (stereo not given)	0%	0%	0%	–	–	–
CCOP(=O)(CCCCCCCCn1cc(C)c(=O)[nH]c1=O)OCC	0%	0%	0%	–	–	–
Cc1cn(C/C=C\COCP(=O)(O)O)c(=O)[nH]c1=O	0%	0%	0%	–	–	–
O=c1[nH]c(=O)n(CCCCCCCCP(=O)(O)O)c2[nH]ccc12	96%	97%	94%	–	–	–
Cc1cn(CC(O)C(O)COCOCP(=O)(O)O)c(=O)[nH]c1=O (stereo not given)	0%	0%	0%	–	–	–
Cc1cn(CCCCCCCP(=O)(O)O)c(=O)[nH]c1=O	63%	73%	55%	–	–	–
Cc1cn(COC/C=C\COCP(=O)(O)O)c(=O)[nH]c1=O	0%	0%	0%	–	–	–
Cc1cn(CC(O)C(O)COCOCP(=O)(OC(C)C)OC(C)C)c(=O)[nH]c1=O (stereo not given)	0%	0%	0%	–	–	–
Cc1cn(C/C=C\COCP(=O)(OC(C)C)OC(C)C)c(=O)[nH]c1=O	0%	0%	0%	–	–	–
Cc1cn(CCCCOCP(=O)(OC(C)C)OC(C)C)c(=O)[nH]c1=O	0%	0%	0%	–	–	–
Cc1cn(C/C=C\COCOCP(=O)(O)O)c(=O)[nH]c1=O	22%	34%	17%	–	–	–
CCOP(=O)(CCCCCCCn1cc(C)c(=O)[nH]c1=O)OCC	0%	0%	0%	–	–	–
Cc1cn(CC(O)C(O)COCP(=O)(O)O)c(=O)[nH]c1=O (stereo not given)	0%	0%	0%	–	–	–
CCOP(=O)(CCCCCCCCn1c(=O)[nH]c(=O)c2cc[nH]c21)OCC	–	–	–	27%	43%	37%
Cc1cn(CCCCCCP(=O)(O)O)c(=O)[nH]c1=O	5%	11%	2%	–	–	–
Cc1cn(CCCCOCP(=O)(O)O)c(=O)[nH]c1=O	17%	27%	12%	–	–	–

— ChEMBL document CHEMBL1132969, “Design, synthesis, and enzymatic evaluation of multisubstrate analogue inhibitors of Escherichia coli thymidine phosphorylase” (J Med Chem, 2000)
